Reference: US10646565B2, “Treatment of alzheimer'S disease (AD) with an aluminum salt” (AFFIRIS AG, priority 2014, dated 2020)
“Also recorded” adds a separate entry of the source.

How the values were obtained:
[1] = aluminium oxyhydroxide; cited from earlier work
[2] = system: human Aβ1-40/42; experiment: ELISA reactivity of vaccination induced Abs towards human Aβ1-40/42 in Tg2576-mice; assay type: in vivo; settings: 6x s.c. at 4-week intervals, plasma at sacrification, background 1/100, FIG. 6B
Procedure: Alum doses used were equivalent to 2 mg/ml. Vaccination induced Abs were measured in plasma samples taken at sacrification (SeqID 1 (n=10), SeqID (n=8), KLH-Alum (n=10) and Alum only (n=8)). Samples were analyzed for their concentration of IgG Abs against specific peptides. Values depicted are the titer calculated as OD max/2 (at 405 nm) plus SEM. […] Background for this assay was set to 1/100, indicated by black lines and an asterisk in A+B.

[3] = system: Tg2576 mice; experiment: Contextual fear conditioning (CFC) in Tg2576 mice; settings: 6 monthly s.c. injections, Alum equivalent to 2 mg/ml
[4] = system: respective immunizing peptide; experiment: ELISA titer of vaccination induced IgG Abs against immunizing peptide in Tg2576-mice; assay type: in vivo; settings: 6x s.c. at 4-week intervals, plasma at sacrification, background 1/100, FIG. 6A
Procedure: Alum doses used were equivalent to 2 mg/ml. Vaccination induced Abs were measured in plasma samples taken at sacrification (SeqID 1 (n=10), […], KLH-Alum (n=10) and Alum only (n=8)). Samples were analyzed for their concentration of IgG Abs against specific peptides. Values depicted are the titer calculated as OD max/2 (at 405 nm) plus SEM. IgG response towards the respective immunizing peptide (SeqID 1: anti SeqID 1; SeqID 2: anti SeqID 2, KLH-Alum: anti KLH, Alum: anti AD02); B) Reactivity towards human Aβ1-40/42 after immunization. […] Background for this assay was set to 1/100, indicated by black lines and an asterisk in A+B.
Substrates used include human (BACHEM, CH) Aβ1-40/42 (at 5 μg/ml), KLH (1 μg/ml) and peptide-Bovine serum albumin (BSA) conjugates (SeqID 1 and SeqID 2, 1 μM). Optical density (OD) was measured at 405 nm using a micro-well reader (Tecan, CH). ODmax/2 was calculated.
To test the immunogenicity of two Aβ targeting vaccines SeqID 1-KLH-Alum and SeqID 2-KLH Alum in comparison to KLH-Alum and Alum (Aluminium-oxyhydroxide) only, Tg2576-mice were injected 6×, s.c., at 4-week intervals with either conjugate-vaccine containing 30 μg net peptide, equivalent doses of KLH formulated with Alum or Alum only. […] Vaccination induced Abs were measured in plasma samples taken at sacrification (SeqID 1 (n=10), SeqID 2 (n=8), KLH-Alum (n=10) and Alum only (n=8)).

[5] = system: patients with early AD; experiment: AFF006 clinical trial: MRI volume-based morphometry of hippocampus; assay type: in vivo, human; settings: 2 mg group of patients, FIG. 4
Excerpt: EMEA and FDA criteria recommend newer techniques, such as MRI, especially atrophy of entorhinal or (para-) hippocampal cortex. With the present invention, PET (Positron emission tomography)-MRI was applied. More specifically, volume of right hippocampus (important for learning and memory of material that is difficult to verbalise) is used according to the present invention as significant AD biomarker for treatment success.
Hippocampus (left and right), and whole lateral ventricle ROIs were delineated on an anatomical MRI template in order to generate the atlas for volumetric measures. The volumes of the hippocampus and lateral ventricles for each subject were determined using a fully-automated method which combines transformations derived from the nonlinear registration of the atlas labels to individual subject scans and subject-specific image information (Collins et al., J. Comput. Assist. Tomogr., 18: 192-205, 1994). Lateral ventricle and hippocampal segmentations that failed post-processing QC review were manually corrected. The total intracranial volume (TIV) was estimated from the brain mask generated during pre-processing and the average TIV (TIVavg) for each subject was determined by averaging the estimated TIV across visits. […]

[6] = system: patients with early AD; experiment: AFF006 clinical trial: adverse event summary of local reactions; assay type: in vivo, human
Procedure: (§1) AFF006 was conducted as a randomized, placebo-controlled, parallel group, double-blind, multi-center phase II study and assessed the clinical and immunological activity as well as the safety and tolerability of repeated s.c. administrations of i.a. aluminium (different doses) in patients with early AD, as defined in the protocol. It was performed in a total of 6 countries: Austria, France, Germany, Slovakia, Czech Republic and Croatia.
(§2) The clinical trial comprised 10 regular outpatient visits and 6 telephone interviews. Up to four weeks before start of treatment, a screening visit (Visit 1) was performed to ensure suitability of the patients for the clinical trial and to establish the patients' baseline characteristics. Following screening, eligible patients were randomly allocated to the treatment groups. After randomization at week 0, patients received 6 injections with either 1 or 2 mg aluminium. Injections were applied s.c. by the investigator at weeks 0, 4, 8, 12, 40 and 65 (Visit 2, 3, 4, 5, 7 and 9).
At Visits 2, 3, 4, 5, 6, 7 and 9 possible local and systemic reactions to the vaccine and vital signs (blood pressure, heart rate, respiratory rate and body temperature) were assessed. In addition, a physical and neurological examination was performed. Efficacy parameters were assessed at Visits 1, 2, 3, 5, 6, 7, 8, 9, 10. The final visit (Visit 10) was performed twelve weeks after the last administration of study drug (Visit 9). An early discontinuation visit (EDV) was performed when a patient discontinued from the clinical trial.
During the study Visits 2, 3, 4, 5, 7 and 9 the patient received study drug by the investigator, in total: six injections over a 65-week treatment period. Injections were applied to the external surface of the upper arm, approximately 8-10 cm above the elbow. Prerequisite regarding the actual site was the presence of an intact regional lymph node station. If the draining lymph node stations of both upper arms were not intact, injection was placed into the thigh close to the inguinal lymph nodes. Two alternating injection sites (e.g. left and right upper arm, left upper arm and left thigh) were used throughout the 6 injections.
Injections were applied to the subcutaneous tissue (s.c.). Special care was taken to avoid […] application by careful aspiration before each injection. All administrations were performed at the trial site.
Safety evaluations included the following:
(§3) adverse events (AEs) and serious adverse events (SAEs) (number of patients who withdrew due to AEs; reason for withdrawal)

[7] = system: patients with early AD; experiment: AFF006 clinical trial: patient disposition, reason for discontinuation; assay type: in vivo, human
Procedure: Data supporting the invention are derived from a randomized clinical trial in early AD patients. The study (AFF006; Eudract: 2009-016504-22) randomized early AD patients into 5 treatment arms. Patients of 2 study arms received either 1 mg aluminium or 2 mg aluminium. In total, 99 early AD patients were enrolled into the 2 study arms. Participation of a given patient lasted 18 months.
as §1, §2, §3

## aluminium oxyhydroxide
[1]
  point of zero charge: ~11 pH
[2]
  Abs reactivity towards human Aβ1-40/42: did not elicit signals above background; also recorded: do not show reactivity above background
[3]; FIG. 7, listed as Alum
  contextual memory and learning (CFC, % of time freezing): showed similar effects as detectable with Aβ targeting vaccines
[3]; FIG. 7, listed as aluminium-oxyhydroxide
  contextual memory and learning (CFC, % of time freezing): lower cognitive decline significantly
[4]
  IgG titer towards the peptide used for immunization (ODmax/2): did not elicit signals above background
[5]
  MRI data (volume of right hippocampus): statistically significant disease modifying effect
[6]; 1 mg s.c., N = 48
  Musculoskeletal and Connective Tissue Disorders: Pain in Extremity: events: 0
  Musculoskeletal and Connective Tissue Disorders: Pain in Extremity: subjects %: 0.0%
  Musculoskeletal and Connective Tissue Disorders: Pain in Extremity: subjects n: 0
  Vascular Disorders: Haematoma: subjects n: 0
[6]; 2 mg s.c., N = 51
  Musculoskeletal and Connective Tissue Disorders: Pain in Extremity: events: 1
  Musculoskeletal and Connective Tissue Disorders: Pain in Extremity: subjects n: 1
  Vascular Disorders: Haematoma: subjects n: 0
[7]; 1 mg s.c., N = 48
  Reason for Discontinuation from the Study: Death: subjects %: (4.2%)
  Reason for Discontinuation from the Study: Death: subjects n: 2
[7]; 2 mg s.c., N = 51
  Reason for Discontinuation from the Study: Death: subjects %: (0.0%)
  Reason for Discontinuation from the Study: Death: subjects n: 0
